Where two headings read alike, the source gives them in different places.
How the values were obtained:
[1] = Hydrocarbonylation of 2-pentenal with different ligands; ligand converted to phosphonium ion ligand degradation product by 31P-NMR (Example 4); format: physicochemical; conditions: ligand converted to phosphonium ion degradation product as percentage of total ligand; 3 hours, 70° C., 300 psig CO, 600 psig H2, 1570 ppm Rh, 4.6 mol ligand/mol Rh, 2-pentenal in 1-butanol
Procedure: In a series of hydroformylation reactions (4A-D) 2-pentenal (50 mmols) was subjected to hydrocarbonylation conditions for 3 hours using a rhodium catalyst promoted with a variety of ligands having different cone angles and pKa's. Hydrocarbonylation conditions included: 70° C., 300 psig (2,068 kPa) carbon monoxide, 600 psig (4,136 kPa) hydrogen, 1570 ppm Rh, 4.6 mol ligand/mol Rh, and 40 wt % initial 2-pentenal in 1-butanol solvent. The source of Rh was Rh4(CO)12. During the course of the reaction 2-pentenal was hydrogenated to valeraldehyde and then to pentanol. After the reaction was completed, the reaction fluid was examined by P^31-NMR spectroscopy to determine the amount of ligand converted to phosphonium ion ligand degradation product, as a percentage of the total ligand in solution.

[2] = cited from earlier work
[3] = Ligand basicity measured by pKa; format: physicochemical; conditions: est = estimated value
Procedure: Basicity (electronic effect) measures the reactivity of a ligand towards a proton. Ligands with lower attraction to binding a proton are less basic, and therefore, generally of lower nucleophilicity. […] Generally, basicity is measured by pKa, known to those of skill in the art, as described in Organometallics, (1989) 8(1), 1, and by Wm. A. Henderson, Jr. and C. A. Streuli, Journal of the American Chemical Society, (1960), 82, 5791-5794, and by Tim Allman, et al., Canadian Journal of Chemistry (1982), 60(6), 716-722, all references incorporated herein by reference. Ligands having a pKa typically of less than about 8.3 provide for reduced formation of phosphonium ion ligand degradation products.

[4] = Batch hydrocarbonylation of 1,3-butadiene; phosphonium salts followed by 31P-NMR and ligand usage (Examples 1-3); format: physicochemical
Procedure: A batch hydrocarbonylation of 1,3-butadiene (BD) to pentenols was conducted at the following conditions: 70° C., 300 psig (2,068 kPa) carbon monoxide, 600 psig (4,136 kPa) hydrogen, 1570 ppm Rh, 4.6 mol ligand/mol Rh, and 40 wt % initial BD in 1-butanol solvent. Trioctylphosphine was used as ligand, and the Rh source was Rh4(CO)12. Multiple samples were taken from the reactor and analyzed by phosphorus-31 nuclear magnetic resonance spectroscopy (^31P-NMR) to follow the concentration of phosphonium ion ligand degradation products (phosphonium salts) with time. The concentration of phosphonium salts increased between t=0 and t=60 min, and their concentration reached a maximum of 0.008 mol/L at t=60 min. […] The concentration of 2-pentenal (α,β-unsaturated aldehyde) also reached a maximum at 60 min.
The BD conversion at the time when the concentrations of phosphonium salts and α,β-unsaturated aldehyde were at their maximum was 39%. Had the reaction been stopped at 39% conversion of BD, the ligand usage (lost) to phosphonium salts would have been 65 g/L/day. However, the reaction was continued until 480 minutes to allow for the 2-pentenal to react away under normal reaction conditions. […] The BD conversion at t=480 min was 98%. When the reaction was stopped at 98% BD conversion, the ligand usage (lost) to phosphonium salts was less than 1 g/L/day.
A batch hydrocarbonylation of 1,3-butadiene (BD) was conducted to partial conversion followed by stripping of the reaction product solution with hydrogen to hydrogenate residual α,β-unsaturated aldehyde (2-pentenal). The batch hydrocarbonylation was conducted at the following conditions: 70° C., 300 psig (2,068 kPa) carbon monoxide, 600 psig (4,136 kPa) hydrogen, 1590 ppm Rh, 4.5 mol ligand/mol Rh, and 40 wt % initial BD in 1-butanol solvent. The ligand used was trioctylphosphine, and the Rh source was Rh4(CO)12. The reaction was conducted for 130 minutes and reached 67% conversion BD. At that time, the concentration of phosphonium salts and α,β-unsaturated aldehyde (2-pentenal) were both about 0.006 mol/L. If no attempt had been made to revert the phosphonium salts at this point, the ligand usage (lost) to phosphonium salts would have been 25 g/L/day. The reactor was vented down to atmospheric pressure to remove most of the syn-gas (CO+H2). The reactor was then re-pressurized back to 900 psig (6,205 kPa) with pure hydrogen. […] Hydrogen was continuously sparged through the reactor at a rate of 0.5 standard cubic feet per hour (SCFH) during the time when the reactor was at 120° C. and 900 psig (6,205 kPa). After 10 minutes of stripping with hydrogen, all phosphonium salts were undetectable by ^31P-NMR, and the α,β-unsaturated aldehyde was undetectable by gas chromatography. The concentration of both of these species remained at essentially “0” for the remainder of the experiment. The ligand usage (loss to phosphonium salts) was reduced from 25 g/L/day to less than 1 g/L/day by reverting the phosphonium salts by hydrogenating the residual α,β-unsaturated aldehyde with hydrogen.
A batch hydrocarbonylation of 1,3-butadiene (BD) was conducted to partial conversion followed by stripping of the reaction product solution with nitrogen to remove residual α,β-unsaturated aldehyde (2-pentenal) by volatilization at […]. The batch hydrocarbonylation was conducted at the following conditions: 70° C., 300 psig (2,068 kPa) carbon monoxide, 600 psig (4,136 kPa) hydrogen, 1590 ppm Rh, 4.6 mol ligand/mol Rh, and 40 wt % initial BD in 1-butanol solvent. The ligand used was trioctylphosphine, and the Rh source was Rh4(CO)12. The reaction was conducted for 120 minutes and reached 72% conversion of BD. At that time, the concentration of phosphonium salts and α,β-unsaturated aldehyde were about 0.005 and 0.016 mol/L, respectively. If no attempt had been made to revert the phosphonium salts at this point, the ligand usage (lost) to phosphonium salts would have been about 20 g/L/day. […]

Row | SMILES | % Phosphonium Salt (by wt.) [1] [%] | PKa [2] | PKa ([2]; listed as tri-isobutylphosphine) | pKa [3] | ligand usage (lost) to phosphonium salts ([4]; Example 1, had the reaction been stopped at 39% conversion of BD) [g/L/day] | concentration of phosphonium salts ([4]; Example 1, maximum at t=60 min, 39% BD conversion, 70° C.) [mol/L] | ligand usage (lost) to phosphonium salts ([4]; Example 1, reaction stopped at 98% BD conversion) | concentration of phosphonium salts ([4]; Example 1, t=480 min, 98% BD conversion) [mol/L] | ligand usage (lost) to phosphonium salts ([4]; Example 2, 67% conversion BD, if no attempt made to revert) [g/L/day] | concentration of phosphonium salts ([4]; Example 2, 130 minutes, 67% conversion BD, before reversion) | phosphonium salts by 31P-NMR ([4]; Example 2, after 10 minutes of stripping with hydrogen, 120° C., 900 psig) | ligand usage (loss to phosphonium salts) ([4]; Example 2, after reversion with hydrogen) | ligand usage (lost) to phosphonium salts ([4]; Example 3, 72% conversion of BD, if no attempt made to revert) | concentration of phosphonium salts ([4]; Example 3, 120 minutes, 72% conversion of BD, before reversion) | concentration of phosphonium salts ([4]; Example 3, after 20 minutes of stripping with nitrogen, 120° C., 900 psig) [mol/L] | ligand usage (loss to phosphonium salts) ([4]; Example 3, after stripping with nitrogen) [g/L/day]
1 | CC(C)CP(CC(C)C)CC(C)C [Tri-isobutylphosphine] | 0.3 | 7.97 | less than 8.3 | – | – | – | – | – | – | – | – | – | – | – | – | –
2 | CCCCCCCCP(CCCCCCCC)CCCCCCCC [tri-n-octylphosphine] | – | – | – | ≥ 8.3 | 65 | 0.008 | less than 1 g/L/day | 0.0005 | 25 | about 0.006 mol/L | undetectable | less than 1 g/L/day | about 20 g/L/day | about 0.005 mol/L | 0.0005 | 2
3 | CCCCP(CCCC)C1CCCCC1 [Cyclohexyldi-n-butylphosphine] | 9.8 | – | – | ~8.9 | – | – | – | – | – | – | – | – | – | – | – | –
